Experimental data reported in patent US8546427B2, “Tetrahydroquinoline derivatives” (Hoffmann-La Roche Inc., priority 2010, dated 2013).

System: AMP-activated protein kinase (AMPK)
Experiment: ADP Quest assay for AMPK activators
Type: biochemical
Set-up: key: fold AMPK activation at 30 μM activator vs none
Settings: fold of AMPK activation to phosphorylate SAMS peptide without and with an activator at the concentration of 30 μM
Procedure: This method evaluates AMP-activated protein kinase (AMPK) activity through detecting the accumulation of ADP product using an ADP Quest kit and determining the E30 values of the small molecular AMPK activators. ADP Quest kit (DiscoveRx, Fremont, Calif.) is stored at −20° C. before use. Before an experiment, thaw the kit (include assay buffer, ADP standard solution, reagent A and reagent B) and equilibrate to room temperature. Dispense the ADP Quest reagents into single-use aliquots and store at −20° C. The compound concentrations typically range from 0 μM to 100 μM by 2-fold dilution. AMP concentrations range from 0.98 μM to 1 mM as the reference control. In an assay, thaw and equilibrate the assay buffer, reagent A and reagent B to room temperature for 30 minutes prior to use. Mix ATP, SAMS peptide substrate and compound, and place them into the 384-well assay plate. Add reagent A and B based on the assay kit protocol. Incubate the assay plate at room temperature for 30 minutes after addition the mixture followed by the addition of AMPK protein (Invitrogen, CA) to initiate the AMPK phosphorylation reaction. At the same time, reactions with AMPK activator AMP in the absence of enzyme is included as blank control. The reaction fluorescence signal is monitored and recorded on Envision in kinetic mode with the excitation wavelength of 530 nm and emission wavelength of 590 nm. The E30 value, defined as the fold of AMPK activation to phosphorylate SAMS peptide without and with an activator at the concentration of 30 μM, is calculated and analyzed using Prism 5.0.

Row | SMILES | E30
1 | CC1(C)CC(c2ccccc2NS(C)(=O)=O)Nc2ccc(C#N)cc21 (stereo not drawn) [Example-23, N-[2-(6-Cyano-4,4-dimethyl-1,2,3,4-tetrahydro-quinolin-2-yl)-phenyl]-methanesulfonamide] | 1.14
2 | CC(C)(Nc1cccc(C2CC(C)(C)c3cc(C(F)(F)F)ccc3N2)c1)C(=O)O (stereo not drawn) [Example-9, 2-[3-(4,4-Dimethyl-6-trifluoromethyl-1,2,3,4-tetrahydro-quinolin-2-yl)-phenylamino]-2-methyl-propionic acid] | 2.34
3 | CC1(C)CC(c2ccccc2NS(C)(=O)=O)Nc2ccc(Cl)cc21 (stereo not drawn) [Example-10, N-[2-(6-Chloro-4,4-dimethyl-1,2,3,4-tetrahydro-quinolin-2-yl)-phenyl]-methanesulfonamide] | 1.70
4 | CC1(C)CC(c2cccc(NC3(C(=O)O)CC3)c2)Nc2c(C(=O)O)cccc21 (stereo not drawn) [Example-5, 2-[3-(1-Carboxy-cyclopropylamino)-phenyl]-4,4-dimethyl-1,2,3,4-tetrahydro-quinoline-8-carboxylic acid] | 2.44
5 | CC1(C)CC(c2ccccc2NC2(C(=O)O)CC2)Nc2ccc(Cl)cc21 (stereo not drawn) [Example-22, 1-[2-(6-Chloro-4,4-dimethyl-1,2,3,4-tetrahydro-quinolin-2-yl)-phenylamino]-cyclopropanecarboxylic acid] | 1.40
6 | CC(C)(Nc1cccc(C2CC(C)(C)c3cc(Cl)ccc3N2)c1)C(=O)O (stereo not drawn) [Example 1, 2-[3-(6-Chloro-4,4-dimethyl-1,2,3,4-tetrahydro-quinolin-2-yl)-phenylamino]-2-methyl-propionic acid] | 3.30
7 | CN1c2ccc(C(F)(F)F)cc2C(C)(C)CC1c1cccc(NC(C)(C)C(=O)O)c1 (stereo not drawn) [Example-11, 2-Methyl-2-[3-(1,4,4-trimethyl-6-trifluoromethyl-1,2,3,4-tetrahydro-quinolin-2-yl)-phenylamino]-propionic acid] | 2.48
8 | CC(C)(Nc1cccc(C2CC(C)(C)c3cc(C#N)ccc3N2)c1)C(=O)O (stereo not drawn) [Example-3, 2-[3-(6-Cyano-4,4-dimethyl-1,2,3,4-tetrahydro-quinolin-2-yl)-phenylamino]-2-methyl-propionic acid] | 2.88
9 | CC1(C)CC(c2cccc(NC3(C(=O)O)CC3)c2)Nc2ccc(Cl)cc21 (stereo not drawn) [Example-2, 1-[3-(6-Chloro-4,4-dimethyl-1,2,3,4-tetrahydro-quinolin-2-yl)-phenylamino]-cyclopropanecarboxylic acid] | 2.63
10 | CC(C)(Nc1cccc(C2CC(C)(C)c3cc(Cl)cc(C(=O)O)c3N2)c1)C(=O)O (stereo not drawn) [Example-7, 2-[3-(1-Carboxy-1-methyl-ethylamino)-phenyl]-6-chloro-4,4-dimethyl-1,2,3,4-tetrahydro-quinoline-8-carboxylic acid] | 2.27
11 | CC1(C)CC(c2cccc(NC3(C(=O)O)CC3)c2)Nc2ccc(C(F)(F)F)cc21 (stereo not drawn) [Example-17, 1-[3-(4,4-Dimethyl-6-trifluoromethyl-1,2,3,4-tetrahydro-quinolin-2-yl)-phenylamino]-cyclopropanecarboxylic acid] | 1.91
12 | CC1(C)CC(c2cccc(NC3(C(=O)O)CC3)c2)Nc2ccc(C#N)cc21 (stereo not drawn) [Example-4, 1-[3-(6-Cyano-4,4-dimethyl-1,2,3,4-tetrahydro-quinolin-2-yl)-phenylamino]-cyclopropanecarboxylic acid] | 2.43
13 | CC1(C)CC(c2ccccc2NS(=O)(=O)c2ccc(F)cc2)Nc2ccc(Cl)cc21 (stereo not drawn) [Example-19, N-[2-(6-Chloro-4,4-dimethyl-1,2,3,4-tetrahydro-quinolin-2-yl)-phenyl]-4-fluoro-benzenesulfonamide] | 1.64
14 | CC(C)(Nc1cccc(C2CC(C)(C)c3cccc(C(=O)O)c3N2)c1)C(=O)O (stereo not drawn) [Example-15, 2-[3-(1-Carboxy-1-methyl-ethylamino)-phenyl]-4,4-dimethyl-1,2,3,4-tetrahydro-quinoline-8-carboxylic acid] | 1.88
15 | CC1(C)CC(c2ccccc2NS(=O)(=O)c2cccc(F)c2)Nc2ccc(Cl)cc21 (stereo not drawn) [Example-14, N-[2-(6-Chloro-4,4-dimethyl-1,2,3,4-tetrahydro-quinolin-2-yl)-phenyl]-3-fluoro-benzenesulfonamide] | 1.78
16 | Cc1cc(C#N)cc2c1NC(c1cccc(NC3(C(=O)O)CC3)c1)CC2(C)C (stereo not drawn) [Example-8, 1-[3-(6-Cyano-4,4,8-trimethyl-1,2,3,4-tetrahydro-quinolin-2-yl)-phenylamino]-cyclopropanecarboxylic acid] | 1.68
17 | Cc1cc(C#N)cc2c1NC(c1cccc(NC(C)(C)C(=O)O)c1)CC2(C)C (stereo not drawn) [Example-12, 2-[3-(6-Cyano-4,4,8-trimethyl-1,2,3,4-tetrahydro-quinolin-2-yl)-phenylamino]-2-methyl-propionic acid] | 2.37

Further lines, results first:

Row | E30 | SMILES
18 | 2.02 | CC1(C)CC(c2ccccc2NC2(C(=O)O)CC2)Nc2ccc(C#N)cc21 (stereo not drawn) [Example-25, 1-[2-(6-Cyano-4,4-dimethyl-1,2,3,4-tetrahydro-quinolin-2-yl)-phenylamino]-cyclopropanecarboxylic acid]
19 | 1.19 | CC(C)S(=O)(=O)Nc1ccccc1C1CC(C)(C)c2cc(C#N)ccc2N1 (stereo not drawn) [Example-50, Propane-2-sulfonic acid [2-(6-cyano-4,4-dimethyl-1,2,3,4-tetrahydro-quinolin-2-yl)-phenyl]-amide]
20 | 1.26 | CC(C)(Nc1ccccc1C1CC(C)(C)c2cc(Cl)ccc2N1)C(=O)O (stereo not drawn) [Example-26, 2-[2-(6-Chloro-4,4-dimethyl-1,2,3,4-tetrahydro-quinolin-2-yl)-phenylamino]-2-methyl-propionic acid]
21 | 3.01 | CC1(C)CC(c2ccccc2NS(=O)(=O)c2ccc(F)cc2)Nc2ccc(C(=O)O)cc21 (stereo not drawn) [Example-40, 2-[2-(4-Fluoro-benzenesulfonylamino)-phenyl]-4,4-dimethyl-1,2,3,4-tetrahydro-quinoline-6-carboxylic acid]
22 | 1.34 | CC1(C)CC(c2cccc(NS(=O)(=O)c3ccc(F)cc3)c2)Nc2ccc(C(F)(F)F)cc21 (stereo not drawn) [Example-58, N-[3-(4,4-Dimethyl-6-trifluoromethyl-1,2,3,4-tetrahydro-quinolin-2-yl)-phenyl]-4-fluoro-benzenesulfonamide]
23 | 1.31 | CC1(C)CC(c2ccccc2NC(=O)c2ccc(F)cc2)Nc2ccc(C(=O)O)cc21 (stereo not drawn) [Example-32, 2-[2-(4-Fluoro-benzoylamino)-phenyl]-4,4-dimethyl-1,2,3,4-tetrahydro-quinoline-6-carboxylic acid]
24 | 1.20 | CC1(C)CC(c2ccccc2NC(=O)c2cccc(F)c2)Nc2ccc(C(=O)O)cc21 (stereo not drawn) [Example-37, 2-[2-(3-Fluoro-benzoylamino)-phenyl]-4,4-dimethyl-1,2,3,4-tetrahydro-quinoline-6-carboxylic acid]
25 | 1.23 | CC1(C)CC(c2ccccc2NC(=O)c2ccccc2F)Nc2ccc(C(=O)O)cc21 (stereo not drawn) [Example-35, 2-[2-(2-Fluoro-benzoylamino)-phenyl]-4,4-dimethyl-1,2,3,4-tetrahydro-quinoline-6-carboxylic acid]
26 | 1.15 | CC1(C)CC(c2ccccc2NS(=O)(=O)c2ccc(F)cc2)Nc2ccc(C(F)(F)F)cc21 (stereo not drawn) [Example-45, N-[2-(4,4-Dimethyl-6-trifluoromethyl-1,2,3,4-tetrahydro-quinolin-2-yl)-phenyl]-4-fluoro-benzenesulfonamide]
27 | 2.69 | CC1(C)CC(c2ccccc2NS(=O)(=O)c2ccccc2F)Nc2ccc(C(=O)O)cc21 (stereo not drawn) [Example-39, 2-[2-(2-Fluoro-benzenesulfonylamino)-phenyl]-4,4-dimethyl-1,2,3,4-tetrahydro-quinoline-6-carboxylic acid]
28 | 3.22 | CN1c2ccc(C#N)cc2C(C)(C)CC1c1cccc(NC(C)(C)C(=O)O)c1 (stereo not drawn) [Example-24, 2-[3-(6-Cyano-1,4,4-trimethyl-1,2,3,4-tetrahydro-quinolin-2-yl)-phenylamino]-2-methyl-propionic acid]
29 | 2.16 | Cc1cc(F)cc2c1NC(c1cccc(NC(C)(C)C(=O)O)c1)CC2(C)C (stereo not drawn) [Example-31, 2-[3-(6-Fluoro-4,4,8-trimethyl-1,2,3,4-tetrahydro-quinolin-2-yl)-phenylamino]-2-methyl-propionic acid]
30 | 1.14 | CC1(C)CC(c2ccccc2NS(=O)(=O)c2cccc(F)c2)Nc2ccc(C(F)(F)F)cc21 (stereo not drawn) [Example-43, N-[2-(4,4-Dimethyl-6-trifluoromethyl-1,2,3,4-tetrahydro-quinolin-2-yl)-phenyl]-3-fluoro-benzenesulfonamide]
31 | 1.15 | CC1(C)CC(c2ccccc2NS(=O)(=O)c2ccccc2F)Nc2ccc(C(F)(F)F)cc21 (stereo not drawn) [Example-44, N-[2-(4,4-Dimethyl-6-trifluoromethyl-1,2,3,4-tetrahydro-quinolin-2-yl)-phenyl]-2-fluoro-benzenesulfonamide]
32 | 2.46 | CN1c2ccc(C#N)cc2C(C)(C)CC1c1cccc(NC2(C(=O)O)CC2)c1 (stereo not drawn) [Example-28, 1-[3-(6-Cyano-1,4,4-trimethyl-1,2,3,4-tetrahydro-quinolin-2-yl)-phenylamino]-cyclopropanecarboxylic acid]
33 | 1.34 | CC1(C)CC(c2ccccc2NS(=O)(=O)c2cccnc2)Nc2ccc(Cl)cc21 (stereo not drawn) [Example-36, Pyridine-3-sulfonic acid [2-(6-chloro-4,4-dimethyl-1,2,3,4-tetrahydro-quinolin-2-yl)-phenyl]-amide]
